Reference: US20250092383A1, “COMPOUNDS AND METHODS FOR FBXO22-MEDIATED PROTEIN DEGRADATION” (Northwestern University, priority 2023, published 2025)
Peptide text beside a SMILES is read from it. * marks the point of attachment. Cbz = O=C(OCc1ccccc1)*

Tests used:
Format in all cases: cell-based
[1] = molecular target: T1, FKBP12 (mouse FBXO22) (UniProt P62942+Q78JE5); test: FKBP12 degradation in HEK293T cells expressing mouse FBXO22; settings: HEK293T cells expressing mouse FBXO22 wildtype
T1 construct: expressed in transfected cells; host or cells: HEK293T
Source text: (§1) FIGS. 3A-3H show FBXO22 C227 and C228 are involved in 22-SLF-mediated degradation of FKBP12. […] Among 5,650 quantified IA-DTB-modified peptides, four cysteines were identified on FBXO22 (C83, C117, C228, and C365). […] Data are presented as the mean values (n=2 biological independent samples for DMSO treatment; n=3 biological independent samples for 22-SLF Treatment). […] The bag graph represents quantification of the FLAG-FKBP12/HSP90 protein content. Data are presented as mean values (n=2 biological independent samples). […] The bar graph represents quantification of the FLAG-FKBP12/HSP90 protein content. Data are presented as the mean values (n=2 biological independent samples).
Intriguingly, the peptide sequence containing the two consecutive cysteines (C227 and C228) is identical between human and mouse (FIG. 3f). To explore whether mouse FBXO22 can facilitate 22-SLF-induced FKBP12 degradation and if the conserved cysteines (C226 and C227 in mouse FBXO22) are pivotal, HEK293T cells expressing mouse FBXO22 wildtype, C226A, C227A, and C226AC227A, were generated.

[2] = molecular target: FKBP12 (Homo sapiens, UniProt P62942); test: Western blot of FLAG-FKBP12 degradation in HEK293T cells expressing HA-FBXO22; set-up: expressed in transfected cells; host or cells: HEK293T; settings: MG132 (1 μM), MLN4924 (1 μM), SLF (25 μM)
Experimental: The bar graph represents quantification of the FLAG-FKBP12/HSP90 protein content. Data are presented as the mean values±s.e.m. […] HEK293T cells expressing HA-FBXO22 were treated with 0.025-15 μM 22-SLF for 8 h. The graph represents quantification of the FLAG-FKBP12/HSP90 protein content. Data are presented as the mean values (n=2 biological independent samples). […] The bar graph represents quantification of the FLAG-FKBP12/HSP90 protein content. KO, knockout; WT, wild type. Data are presented as the mean values (n=2 biological independent samples). […] The bar graph represents quantification of the FLAG-FKBP12/HSP90 protein content. Data are presented as the mean values±s.e.m. […] The result is representative of two independent experiments with similar results. WCL, whole-cell lysate; IP, immunoprecipitate.
as §1
FIG. 11A-11B show the acrylamide variant of 22-SLF, 22a-SLF, induced the degradation of FKBP12. […] HEK293T cells expressing HA-FBXO22 were treated with 0.5, 1, or 2 μM of 22-SLF or 22a-SLF for 8 hours. The graph represents quantification of the FLAG-FKBP12/HSP90 protein content. Data are presented as mean values (n=2 biological independent samples).
Next, Western blot analysis was used to measure the degradation of FKBP12 induced by 22-SLF. To achieve this, FLAG-tagged FKBP12 and HA-tagged FBXO22 were stably overexpressed in HEK293T cells, followed by subjecting the cells to varying concentrations of 22-SLF. […] Moreover, 22-SLF's effect on FLAG-FKBP12 degradation was concentration-dependent (FIG. 2a). […] The rescue enabled by MLN4924 indicates the involvement of a Cullin-RING ligase (CRL) in the degradation process. This is consistent with FBXO22 belonging to SKP1-CUL1-F-box protein (SCF) ubiquitin ligase complexes, a subfamily of CRL. […] To provide a more comprehensive insight into 22-SLF-induced FKBP12 degradation, a dose-dependent degradation experiment using 11 concentrations of 22-SLF ranging from […] to 15 μM was conducted. This experiment enabled determination of two parameters, the Dmax value, which reached 89%, and the half-maximal degradation concentration (DC50) value, which measured at 0.5 μM (FIG. 2B). […] Collectively, this array of data supports the canonical mechanism of ligand-induced protein degradation. In this mechanism, 22-SLF orchestrates the recruitment of FBXO22 to FKBP12, culminating in the proteasomal degradation of FKBP12.
To identify the cysteine residue(s) in FBXO22 engaged with 22-SLF, HA-FBXO22-expressing HEK293T cells were treated with either DMSO or 22-SLF (2 μM, 2 hours). Using competitive cysteine-directed activity-based protein profiling (ABPP), a chemical proteomics for the measurement of target engagement, the degree of blockade of iodoacetamide-desthiobiotin (IA-DTB)-modified cysteines on FBXO22 was quantified. From a pool of 5,650 quantified IA-DTB-modified peptides, four cysteines on FBXO22 (C83, C117, C228, and C365) (FIG. 3a) were identified, with approximately 20% of FBXO22 C228 being blocked by 22-SLF treatment (FIG. 3b), indicating the potential interaction with this cysteine by 22-SLF. Consequently, C228 was mutated to alanine and HA-FBXO22 C228A-expressing HEK293T cells were generated (FIG. 3c). […]

[3] = molecular target: T2, EML4-ALK fusion protein (Homo sapiens, UniProt Q8NEZ5+Q9HC35+Q9UM73); test: EML4-ALK degradation in H2228 wild-type and FBXO22-knockout cells; settings: 1 and 2 μM, 24 h
T2 construct: endogenous in cells; host or cells: H2228 wild type and FBXO22 knockout
Source text: (§2) FIGS. 5A-5E show harnessing FBXO22 for the degradation of BRD4 and EML4-ALK. […] The bar graph represents quantification of the BRD4/β-actin protein content. Data are presented as the mean values (n=2 biological independent samples). […] Data are presented as the mean values (n=2 biological independent samples). […] The bar graph represents quantification of the EML4-ALK/β-actin protein content. Data are presented as the mean values (n=2 biological independent samples).
(§3) Next, the potential of FBXO22 to facilitate the degradation of additional proteins was investigated. Bromodomain-containing protein 4 (BRD4) was chosen due to its notable physiological role and the availability of a selective ligand, JQ1. The compound, 22-JQ1 (3) was synthesized by coupling the FBXO22 binding moiety to JQ1 (FIG. 5a). […] Subsequently, a global proteomic analysis was performed in A549 wild-type and FBXO22-knockout cells treated with 22-JQ1. […] 22-TAE incorporates the FBXO22 binding moiety coupled with a defined anaplastic lymphoma kinase (ALK) ligand (FIG. 5d). FBXO22 knockout was generated in H2228, a non-small cell lung cancer cell line expressing the echinoderm microtubule-associated protein-like 4 (EML4)-ALK fusion protein.

[4] = molecular target: T3, BRD4 (Homo sapiens, UniProt O60885); test: Global proteomic analysis in A549 wild-type and FBXO22-knockout cells treated with 22-JQ1; settings: 2 μM, 24 h
T3 construct: endogenous in cells; host or cells: A549 wild type and FBXO22 knockout
Source text: as §2, §3

[5] = molecular target: T3, BRD4; test: BRD4 degradation in A549 wild-type and FBXO22-knockout cells (western blot); settings: 1 and 2 μM, 24 h
Source text: as §2, §3

T2 sequence (Q9HC35+Q9UM73 fused): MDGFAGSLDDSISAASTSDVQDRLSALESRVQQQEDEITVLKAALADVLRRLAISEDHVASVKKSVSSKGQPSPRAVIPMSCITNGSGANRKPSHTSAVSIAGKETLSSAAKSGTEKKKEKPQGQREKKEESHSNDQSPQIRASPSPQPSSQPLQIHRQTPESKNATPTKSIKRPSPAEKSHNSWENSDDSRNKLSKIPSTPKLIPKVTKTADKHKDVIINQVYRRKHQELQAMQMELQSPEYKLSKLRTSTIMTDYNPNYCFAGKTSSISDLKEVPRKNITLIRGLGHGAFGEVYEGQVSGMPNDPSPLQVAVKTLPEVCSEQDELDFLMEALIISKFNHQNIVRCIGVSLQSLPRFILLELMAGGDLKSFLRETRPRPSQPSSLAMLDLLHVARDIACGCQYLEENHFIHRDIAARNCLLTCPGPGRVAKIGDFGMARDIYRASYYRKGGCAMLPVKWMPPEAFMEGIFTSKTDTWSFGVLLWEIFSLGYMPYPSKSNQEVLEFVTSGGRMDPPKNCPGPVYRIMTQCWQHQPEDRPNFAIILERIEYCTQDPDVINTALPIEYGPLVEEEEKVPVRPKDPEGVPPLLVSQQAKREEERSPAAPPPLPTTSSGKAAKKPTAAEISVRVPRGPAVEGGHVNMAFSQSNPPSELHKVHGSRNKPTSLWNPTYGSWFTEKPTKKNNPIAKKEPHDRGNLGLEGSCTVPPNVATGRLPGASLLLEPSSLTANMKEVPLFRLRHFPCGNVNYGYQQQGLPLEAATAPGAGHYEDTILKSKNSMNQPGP
T2 sequence (Q8NEZ5 whole entry, the tested form may be a part): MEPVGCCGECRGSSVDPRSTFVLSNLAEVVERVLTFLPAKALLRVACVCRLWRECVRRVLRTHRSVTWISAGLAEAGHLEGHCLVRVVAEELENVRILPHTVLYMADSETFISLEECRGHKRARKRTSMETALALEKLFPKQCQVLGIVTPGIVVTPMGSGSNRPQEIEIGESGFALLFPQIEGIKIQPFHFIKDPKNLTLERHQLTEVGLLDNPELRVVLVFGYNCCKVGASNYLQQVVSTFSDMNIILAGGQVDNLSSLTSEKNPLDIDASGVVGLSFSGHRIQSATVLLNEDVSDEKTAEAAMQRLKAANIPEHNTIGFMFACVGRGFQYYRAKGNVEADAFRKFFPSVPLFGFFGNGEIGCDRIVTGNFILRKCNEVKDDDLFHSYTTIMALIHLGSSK
T2 sequence (P63208 2-163 partner limits assumed): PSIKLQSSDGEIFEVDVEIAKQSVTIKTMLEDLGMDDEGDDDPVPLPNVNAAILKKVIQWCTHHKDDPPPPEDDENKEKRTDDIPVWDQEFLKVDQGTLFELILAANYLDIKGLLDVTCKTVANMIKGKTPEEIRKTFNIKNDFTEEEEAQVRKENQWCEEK
T2 sequence (Q13616 whole entry partner, the tested form may be a part): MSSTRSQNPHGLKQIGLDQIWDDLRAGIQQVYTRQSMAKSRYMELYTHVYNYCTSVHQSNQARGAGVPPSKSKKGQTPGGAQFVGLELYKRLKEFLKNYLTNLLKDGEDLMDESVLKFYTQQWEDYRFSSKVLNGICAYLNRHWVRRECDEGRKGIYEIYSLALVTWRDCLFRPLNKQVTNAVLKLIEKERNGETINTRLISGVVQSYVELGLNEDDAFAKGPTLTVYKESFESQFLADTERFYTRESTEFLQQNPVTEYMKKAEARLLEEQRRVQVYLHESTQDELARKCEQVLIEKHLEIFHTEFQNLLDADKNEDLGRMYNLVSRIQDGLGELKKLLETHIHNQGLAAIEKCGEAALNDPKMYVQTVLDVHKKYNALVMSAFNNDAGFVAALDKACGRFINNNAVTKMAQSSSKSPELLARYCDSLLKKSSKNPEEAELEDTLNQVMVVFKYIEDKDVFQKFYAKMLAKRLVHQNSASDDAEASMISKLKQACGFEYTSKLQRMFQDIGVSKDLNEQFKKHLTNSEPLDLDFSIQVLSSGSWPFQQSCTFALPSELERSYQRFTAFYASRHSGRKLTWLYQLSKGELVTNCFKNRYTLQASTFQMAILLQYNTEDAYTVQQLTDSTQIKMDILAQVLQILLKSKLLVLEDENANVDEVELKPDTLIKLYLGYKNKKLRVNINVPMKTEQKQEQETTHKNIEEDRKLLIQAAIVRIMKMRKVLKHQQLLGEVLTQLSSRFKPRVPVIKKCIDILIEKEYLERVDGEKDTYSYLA
T2 sequence (P62877 whole entry partner, the tested form may be a part): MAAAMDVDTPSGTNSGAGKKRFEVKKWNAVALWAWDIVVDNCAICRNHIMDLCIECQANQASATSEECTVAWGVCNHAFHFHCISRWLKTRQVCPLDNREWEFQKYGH
Sequence of FKBP12 (P62942 whole entry): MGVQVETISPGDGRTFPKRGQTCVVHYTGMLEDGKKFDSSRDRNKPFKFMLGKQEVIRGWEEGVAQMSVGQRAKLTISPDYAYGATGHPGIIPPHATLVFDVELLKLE
T1 sequence (P62942 2-108): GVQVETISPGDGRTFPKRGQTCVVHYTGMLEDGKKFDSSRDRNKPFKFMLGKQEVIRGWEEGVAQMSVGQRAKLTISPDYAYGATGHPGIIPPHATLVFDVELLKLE
T1 sequence (Q78JE5 whole entry): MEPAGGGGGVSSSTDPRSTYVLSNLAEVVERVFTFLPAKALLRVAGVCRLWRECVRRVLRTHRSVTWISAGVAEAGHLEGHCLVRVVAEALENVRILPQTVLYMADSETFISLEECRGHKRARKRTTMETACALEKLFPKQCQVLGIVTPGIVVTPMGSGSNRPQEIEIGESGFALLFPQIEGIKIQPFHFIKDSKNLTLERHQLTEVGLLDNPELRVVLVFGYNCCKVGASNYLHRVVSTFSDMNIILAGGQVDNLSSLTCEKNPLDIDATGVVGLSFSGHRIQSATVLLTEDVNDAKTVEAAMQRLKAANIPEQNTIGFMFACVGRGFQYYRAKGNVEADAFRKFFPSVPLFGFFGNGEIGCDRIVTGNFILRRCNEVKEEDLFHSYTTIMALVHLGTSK
T1 sequence (P63208 whole entry partner): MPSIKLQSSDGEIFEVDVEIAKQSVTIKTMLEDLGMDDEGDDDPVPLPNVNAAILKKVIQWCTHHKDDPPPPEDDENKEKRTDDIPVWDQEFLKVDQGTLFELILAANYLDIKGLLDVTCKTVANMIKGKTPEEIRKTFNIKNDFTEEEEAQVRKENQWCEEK

Compound: NS(=O)(=O)OC[C@@H]1C[C@@H](n2ccc3c(N[C@H]4CCc5ccccc54)ncnc32)C[C@@H]1O [MLN4924, reference compound]
- Blockade of 22-SLF-induced FKBP12 degradation, mouse FBXO22 [1]: blocked
- Blockade of 22-SLF-induced loss of FLAG-FKBP12 expression [2]: blocked

Compound: CC(C)C[C@@H](C=O)NC(=O)[C@H](CC(C)C)NC(=O)[C@H](CC(C)C)NC(=O)OCc1ccccc1 [MG132, reference compound] (Cbz-Leu-Leu-Leu-aldehyde)
- Blockade of 22-SLF-induced FKBP12 degradation, mouse FBXO22 [1]: blocked
- Blockade of 22-SLF-induced loss of FLAG-FKBP12 expression [2]: blocked

Compound: COc1cc(N2CCN(CCOCCOCCN(C(=O)CCl)C(C(=O)NCc3ccccc3)c3nc4ccccc4s3)CC2)ccc1Nc1ncc(Cl)c(Nc2ccccc2S(=O)(=O)C(C)C)n1 (stereo not drawn) [22-TAE]
- EML4-ALK degradation, FBXO22-knockout H2228 cells [3]: no such degradation was observed
- EML4-ALK degradation, H2228 wild-type cells [3]: induced the degradation of EML4-ALK fusion protein

Compound: Cc1sc2c(c1C)C(c1ccc(Cl)cc1)=N[C@@H](CC(=O)NCCCOCCOCCOCCCN(C(=O)CCl)C(C(=O)NCc1ccccc1)c1nc3ccccc3s1)c1nnc(C)n1-2 (stereo partly drawn) [22-JQ1]
- BRD4 degradation in global proteomics [4]: potent degradation of BRD4 in A549 wild-type but not FBXO22-knockout cells
- BRD4 degradation, A549 FBXO22 knockout cells [5]: abolished upon FBXO22 knockout
- BRD4 degradation, A549 wild-type cells [5]: promoted the degradation of BRD4
